Source: the NIST ThermoML archive (doi:10.1016/j.jct.2009.01.006)
± gives the expanded uncertainty stated by the source.

Key:
[1] = 303.15 K; for speed of sound: Linear variable-path acoustic interferometer
[2] = refractive index (Na D-line) (dimensionless); details: 298.15 K; 101.33 kPa; Liquid; Standard Abbe refractometry
[3] = xn = mol fraction of the nth substance listed; details: 303.15 K, 101 kPa, Liquid, Direct dilatometry
[4] = φn = volume fraction of the nth substance listed; details: 303.15 K, 101 kPa, Liquid; for speed of sound: Linear variable-path acoustic interferometer

CC(=O)CC(C)C [4-methylpentan-2-one]
mass density ([1]; 101 kPa, Liquid): 791.24 ± 5.2 kg/m3 | speed of sound ([1]; 101 kPa, Liquid): 1168 ± 2 m/s | mass density ([1]; 101.33 kPa, Liquid): 791.25 ± 5.2 kg/m3 | speed of sound ([1]; 101.33 kPa, Liquid): 1172 ± 2 m/s | refractive index [2]: 1.3935 ± 0.0008

CC(=O)CC(C)C [4-methylpentan-2-one] + CN1CCCC1=O
excess molar volume ([3]; x2 = 0.0682): -1.09e-07 ± 7e-09 m3/mol | excess molar volume ([3]; x2 = 0.1202): -1.82e-07 ± 7e-09 m3/mol | excess molar volume ([3]; x2 = 0.2327): -2.88e-07 ± 7e-09 m3/mol | excess molar volume ([3]; x2 = 0.3164): -3.49e-07 ± 7e-09 m3/mol | excess molar volume ([3]; x2 = 0.3727): -3.78e-07 ± 6e-09 m3/mol | excess molar volume ([3]; x2 = 0.4616): -4.11e-07 ± 6e-09 m3/mol | excess molar volume ([3]; x2 = 0.5111): -4.22e-07 ± 6e-09 m3/mol | excess molar volume ([3]; x2 = 0.5711): -4.24e-07 ± 6e-09 m3/mol | excess molar volume ([3]; x2 = 0.6703): -4.15e-07 ± 6e-09 m3/mol | excess molar volume ([3]; x2 = 0.7739): -3.58e-07 ± 7e-09 m3/mol | excess molar volume ([3]; x2 = 0.8589): -2.73e-07 ± 7e-09 m3/mol | excess molar volume ([3]; x2 = 0.9208): -1.79e-07 ± 7e-09 m3/mol | excess molar volume ([3]; x2 = 0.9675): -9.3e-08 ± 7e-09 m3/mol | speed of sound ([4]; φ2 = 0): 1168 ± 2 m/s | speed of sound ([4]; φ2 = 0.0946): 1198 ± 2 m/s | speed of sound ([4]; φ2 = 0.1879): 1232 ± 2 m/s | speed of sound ([4]; φ2 = 0.2615): 1259 ± 2 m/s | speed of sound ([4]; φ2 = 0.3961): 1310 ± 2 m/s | speed of sound ([4]; φ2 = 0.4444): 1332 ± 2 m/s | speed of sound ([4]; φ2 = 0.6087): 1385 ± 2 m/s | speed of sound ([4]; φ2 = 0.7236): 1422 ± 2 m/s | speed of sound ([4]; φ2 = 0.8232): 1456 ± 2 m/s | speed of sound ([4]; φ2 = 0.8989): 1491 ± 2 m/s | mass density ([4]; φ2 = 0): 791.24 ± 5.2 kg/m3 | mass density ([4]; φ2 = 0.0946): 814.41 ± 5.2 kg/m3 | mass density ([4]; φ2 = 0.1879): 836.88 ± 5.2 kg/m3 | mass density ([4]; φ2 = 0.2615): 854.5 ± 5.2 kg/m3 | mass density ([4]; φ2 = 0.3961): 886.44 ± 5.2 kg/m3 | mass density ([4]; φ2 = 0.4444): 897.82 ± 5.2 kg/m3 | mass density ([4]; φ2 = 0.6087): 936.2 ± 5.2 kg/m3 | mass density ([4]; φ2 = 0.7236): 962.58 ± 5.2 kg/m3 | mass density ([4]; φ2 = 0.8232): 985.02 ± 5.2 kg/m3 | mass density ([4]; φ2 = 0.8989): 1001.74 ± 5.3 kg/m3

CN1CCCC1=O [N-methylpyrrolidone]
mass density ([1]; 101 kPa, Liquid): 1023.4 ± 5.3 kg/m3 | mass density ([1]; 101.33 kPa, Crystal): 1023.4 ± 5.3 kg/m3 | speed of sound ([1]; 101.33 kPa, Liquid): 1552 ± 2 m/s | refractive index [2]: 1.4674 ± 0.0008

CN1CCCC1=O [N-methylpyrrolidone] + CC(=O)CC(C)C
speed of sound ([4]; φ1 = 1): 1552 ± 2 m/s | mass density ([4]; φ1 = 1): 1023.4 ± 5.3 kg/m3

CN1CCCC1=O [N-methylpyrrolidone] + CCC(=O)CC
speed of sound ([4]; φ1 = 1): 1552 ± 2 m/s | mass density ([4]; φ1 = 1): 1023.4 ± 5.3 kg/m3

CN1CCCC1=O [N-methylpyrrolidone] + CCC(C)=O
speed of sound ([4]; φ1 = 1): 1552 ± 2 m/s

CN1CCCC1=O [N-methylpyrrolidone] + CCCC(C)=O
speed of sound ([4]; φ1 = 1): 1552 ± 2 m/s | mass density ([4]; φ1 = 1): 1023.4 ± 5.3 kg/m3

CN1CCCC1=O [N-methylpyrrolidone] + O=C1CCCCC1
speed of sound ([4]; φ1 = 1): 1552 ± 2 m/s | mass density ([4]; φ1 = 1): 1023.4 ± 5.3 kg/m3

CCC(C)=O [butanone]
mass density ([1]; 101 kPa, Liquid): 794.51 ± 5.2 kg/m3 | speed of sound ([1]; 101 kPa, Liquid): 1167 ± 2 m/s | mass density ([1]; 101.33 kPa, Liquid): 794.5 ± 5.2 kg/m3 | speed of sound ([1]; 101.33 kPa, Liquid): 1168 ± 2 m/s | refractive index [2]: 1.377 ± 0.0008

CCC(C)=O [butanone] + CN1CCCC1=O
excess molar volume ([3]; x2 = 0.0705): -7.1e-08 ± 6e-09 m3/mol | excess molar volume ([3]; x2 = 0.1436): -1.42e-07 ± 6e-09 m3/mol | excess molar volume ([3]; x2 = 0.2097): -1.89e-07 ± 6e-09 m3/mol | excess molar volume ([3]; x2 = 0.2854): -2.44e-07 ± 6e-09 m3/mol | excess molar volume ([3]; x2 = 0.4102): -2.93e-07 ± 6e-09 m3/mol | excess molar volume ([3]; x2 = 0.5043): -3.02e-07 ± 6e-09 m3/mol | excess molar volume ([3]; x2 = 0.5795): -2.96e-07 ± 6e-09 m3/mol | excess molar volume ([3]; x2 = 0.6942): -2.56e-07 ± 6e-09 m3/mol | excess molar volume ([3]; x2 = 0.8068): -1.89e-07 ± 6e-09 m3/mol | excess molar volume ([3]; x2 = 0.9134): -9.8e-08 ± 6e-09 m3/mol | excess molar volume ([3]; x2 = 0.9545): -5.1e-08 ± 7e-09 m3/mol | speed of sound ([4]; φ2 = 0): 1167 ± 2 m/s | speed of sound ([4]; φ2 = 0.1517): 1214 ± 2 m/s | speed of sound ([4]; φ2 = 0.2207): 1245 ± 2 m/s | speed of sound ([4]; φ2 = 0.2988): 1282 ± 2 m/s | speed of sound ([4]; φ2 = 0.426): 1345 ± 2 m/s | speed of sound ([4]; φ2 = 0.5205): 1391 ± 2 m/s | speed of sound ([4]; φ2 = 0.5952): 1421 ± 2 m/s | speed of sound ([4]; φ2 = 0.7078): 1456 ± 2 m/s | speed of sound ([4]; φ2 = 0.8167): 1483 ± 2 m/s | speed of sound ([4]; φ2 = 0.9184): 1519 ± 2 m/s

O=C1CCCCC1 [cyclohexanone]
mass density ([1]; 101 kPa, Liquid): 937.58 ± 5.2 kg/m3 | speed of sound ([1]; 101 kPa, Liquid): 1386 ± 2 m/s | mass density ([1]; 101.33 kPa, Liquid): 937.55 ± 5.2 kg/m3 | speed of sound ([1]; 101.33 kPa, Liquid): 1385 ± 2 m/s | refractive index [2]: 1.4501 ± 0.0007
